# Legend:
# Toll-like receptor 4 = Toll-like receptor 4 (Homo sapiens, UniProt O00206); assay: Antagonist activity at TLR4 in human PBMC assessed as inhibition of LPS-induced TNFalpha production preincubated for 30 mins followed by LPS addition and measured after 20 hrs by HTRF assay; format: cell-based
# Toll-like receptor 9 = target: T1, Toll-like receptor 9 (Homo sapiens, UniProt Q9NR96); assay: Antagonist activity at TLR9 in human PBMC assessed as inhibition of ODN2216-induced IFNalpha production preincubated for 30 mins followed by ODN2216 addition and measured after 20 hrs by alphaLISA; format: cell-based
# T1 sequence (Q9NR96 whole entry): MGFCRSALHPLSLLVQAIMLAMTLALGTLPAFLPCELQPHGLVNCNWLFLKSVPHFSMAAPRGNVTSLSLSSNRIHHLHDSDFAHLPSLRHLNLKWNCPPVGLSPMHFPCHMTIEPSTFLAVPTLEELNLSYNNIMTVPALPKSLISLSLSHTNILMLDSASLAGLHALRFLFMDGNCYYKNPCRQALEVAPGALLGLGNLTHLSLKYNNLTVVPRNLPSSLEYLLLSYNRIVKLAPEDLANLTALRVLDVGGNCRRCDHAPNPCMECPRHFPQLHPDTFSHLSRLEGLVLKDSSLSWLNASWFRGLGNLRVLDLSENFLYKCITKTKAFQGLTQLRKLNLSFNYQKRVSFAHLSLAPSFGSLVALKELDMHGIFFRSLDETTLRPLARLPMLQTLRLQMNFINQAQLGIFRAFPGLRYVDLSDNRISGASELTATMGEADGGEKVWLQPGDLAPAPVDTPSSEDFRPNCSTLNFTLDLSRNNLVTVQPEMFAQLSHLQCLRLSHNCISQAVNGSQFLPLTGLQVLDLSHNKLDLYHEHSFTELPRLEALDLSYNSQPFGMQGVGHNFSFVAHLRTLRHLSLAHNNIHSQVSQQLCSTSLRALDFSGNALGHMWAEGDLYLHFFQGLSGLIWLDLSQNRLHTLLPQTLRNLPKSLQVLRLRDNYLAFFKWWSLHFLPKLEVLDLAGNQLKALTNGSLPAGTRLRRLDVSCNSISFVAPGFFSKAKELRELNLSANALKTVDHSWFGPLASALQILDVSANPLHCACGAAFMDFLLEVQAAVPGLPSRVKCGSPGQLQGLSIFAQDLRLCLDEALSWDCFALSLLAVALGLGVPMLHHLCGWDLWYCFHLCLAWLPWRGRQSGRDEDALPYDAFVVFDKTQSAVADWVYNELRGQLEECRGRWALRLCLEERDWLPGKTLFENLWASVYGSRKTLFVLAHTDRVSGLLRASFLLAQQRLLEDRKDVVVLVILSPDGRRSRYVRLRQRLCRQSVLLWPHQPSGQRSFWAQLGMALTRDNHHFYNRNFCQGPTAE
# Cytochrome P450 3A4 = Cytochrome P450 3A4 (Homo sapiens, UniProt P08684); assay: Inhibition of CYP3A4 (unknown origin); format: ADME
# Toll-like receptor 7 = target: T2, Toll-like receptor 7 (Homo sapiens, UniProt Q9NYK1); assay: Antagonist activity at TLR7 in human PBMC assessed as inhibition of DOTAP-ssRNA40 induced IFNalpha production preincubated for 30 mins followed by ssRNA40 addition measured after 20 hrs by alphaLISA; format: cell-based
# T2 sequence (Q9NYK1 whole entry): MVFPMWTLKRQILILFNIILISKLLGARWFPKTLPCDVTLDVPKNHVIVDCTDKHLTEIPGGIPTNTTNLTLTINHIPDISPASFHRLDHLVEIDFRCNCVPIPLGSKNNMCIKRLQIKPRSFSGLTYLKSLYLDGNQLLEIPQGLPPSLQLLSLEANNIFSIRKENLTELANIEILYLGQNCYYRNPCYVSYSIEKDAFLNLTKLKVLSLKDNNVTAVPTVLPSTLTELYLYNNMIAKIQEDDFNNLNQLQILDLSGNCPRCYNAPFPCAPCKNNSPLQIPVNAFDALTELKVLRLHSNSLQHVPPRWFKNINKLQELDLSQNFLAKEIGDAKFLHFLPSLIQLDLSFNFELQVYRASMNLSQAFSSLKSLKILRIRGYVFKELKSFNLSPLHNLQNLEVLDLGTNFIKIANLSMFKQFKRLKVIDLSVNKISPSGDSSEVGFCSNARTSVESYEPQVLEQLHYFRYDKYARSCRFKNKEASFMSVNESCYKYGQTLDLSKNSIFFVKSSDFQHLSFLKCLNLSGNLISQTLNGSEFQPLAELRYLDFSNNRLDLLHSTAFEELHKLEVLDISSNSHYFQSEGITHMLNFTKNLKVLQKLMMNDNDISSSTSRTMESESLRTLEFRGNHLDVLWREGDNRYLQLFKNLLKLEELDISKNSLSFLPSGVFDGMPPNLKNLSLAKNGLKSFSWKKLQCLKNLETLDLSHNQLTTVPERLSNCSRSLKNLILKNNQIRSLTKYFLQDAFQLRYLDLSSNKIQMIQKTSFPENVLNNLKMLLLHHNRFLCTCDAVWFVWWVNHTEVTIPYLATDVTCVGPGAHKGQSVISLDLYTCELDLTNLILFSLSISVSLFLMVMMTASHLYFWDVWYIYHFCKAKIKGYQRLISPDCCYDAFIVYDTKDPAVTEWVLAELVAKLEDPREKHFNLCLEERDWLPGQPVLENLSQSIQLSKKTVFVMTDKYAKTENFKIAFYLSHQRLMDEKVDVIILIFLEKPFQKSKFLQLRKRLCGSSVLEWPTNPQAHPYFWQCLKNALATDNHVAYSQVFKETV
# Toll-like receptor 8 [1] = target: T3, Toll-like receptor 8 (Homo sapiens, UniProt Q9NR97); assay: biochemical
# T3 sequence (Q9NR97 whole entry): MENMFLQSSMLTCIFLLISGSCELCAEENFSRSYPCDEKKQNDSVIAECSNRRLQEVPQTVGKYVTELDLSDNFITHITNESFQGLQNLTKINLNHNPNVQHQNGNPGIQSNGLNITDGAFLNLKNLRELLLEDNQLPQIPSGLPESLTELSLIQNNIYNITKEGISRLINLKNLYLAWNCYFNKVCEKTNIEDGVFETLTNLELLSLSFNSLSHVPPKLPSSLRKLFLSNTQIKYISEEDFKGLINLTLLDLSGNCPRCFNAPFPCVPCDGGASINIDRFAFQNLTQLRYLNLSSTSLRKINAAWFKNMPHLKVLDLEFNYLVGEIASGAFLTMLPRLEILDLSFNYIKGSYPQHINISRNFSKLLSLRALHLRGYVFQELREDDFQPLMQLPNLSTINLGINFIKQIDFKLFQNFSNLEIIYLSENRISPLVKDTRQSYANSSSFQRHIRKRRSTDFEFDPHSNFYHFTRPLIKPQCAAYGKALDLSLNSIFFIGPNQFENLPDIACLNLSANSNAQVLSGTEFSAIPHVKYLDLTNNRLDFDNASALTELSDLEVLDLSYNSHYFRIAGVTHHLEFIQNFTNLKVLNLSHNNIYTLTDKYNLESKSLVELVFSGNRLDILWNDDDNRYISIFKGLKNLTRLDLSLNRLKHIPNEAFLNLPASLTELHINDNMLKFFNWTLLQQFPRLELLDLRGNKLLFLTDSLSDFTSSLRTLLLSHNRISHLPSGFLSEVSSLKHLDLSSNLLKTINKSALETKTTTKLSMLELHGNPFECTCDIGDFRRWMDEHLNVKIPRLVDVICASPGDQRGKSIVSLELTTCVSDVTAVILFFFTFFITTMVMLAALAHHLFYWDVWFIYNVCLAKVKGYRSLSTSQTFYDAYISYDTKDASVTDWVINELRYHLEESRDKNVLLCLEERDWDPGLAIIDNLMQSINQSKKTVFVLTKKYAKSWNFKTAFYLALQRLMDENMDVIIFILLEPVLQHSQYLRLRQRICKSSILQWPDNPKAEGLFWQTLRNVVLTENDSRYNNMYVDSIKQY
# Description: Binding affinity to human TLR8 extracellular domain (27 to 827 residues) expressed in Drosophila S2 cells by fluorescence polarization assay
# Toll-like receptor 8 [2] = target: T3, Toll-like receptor 8; assay: biochemical; remark: listed apart in the source
# Chain of Toll-like receptor 4 (O00206 whole entry): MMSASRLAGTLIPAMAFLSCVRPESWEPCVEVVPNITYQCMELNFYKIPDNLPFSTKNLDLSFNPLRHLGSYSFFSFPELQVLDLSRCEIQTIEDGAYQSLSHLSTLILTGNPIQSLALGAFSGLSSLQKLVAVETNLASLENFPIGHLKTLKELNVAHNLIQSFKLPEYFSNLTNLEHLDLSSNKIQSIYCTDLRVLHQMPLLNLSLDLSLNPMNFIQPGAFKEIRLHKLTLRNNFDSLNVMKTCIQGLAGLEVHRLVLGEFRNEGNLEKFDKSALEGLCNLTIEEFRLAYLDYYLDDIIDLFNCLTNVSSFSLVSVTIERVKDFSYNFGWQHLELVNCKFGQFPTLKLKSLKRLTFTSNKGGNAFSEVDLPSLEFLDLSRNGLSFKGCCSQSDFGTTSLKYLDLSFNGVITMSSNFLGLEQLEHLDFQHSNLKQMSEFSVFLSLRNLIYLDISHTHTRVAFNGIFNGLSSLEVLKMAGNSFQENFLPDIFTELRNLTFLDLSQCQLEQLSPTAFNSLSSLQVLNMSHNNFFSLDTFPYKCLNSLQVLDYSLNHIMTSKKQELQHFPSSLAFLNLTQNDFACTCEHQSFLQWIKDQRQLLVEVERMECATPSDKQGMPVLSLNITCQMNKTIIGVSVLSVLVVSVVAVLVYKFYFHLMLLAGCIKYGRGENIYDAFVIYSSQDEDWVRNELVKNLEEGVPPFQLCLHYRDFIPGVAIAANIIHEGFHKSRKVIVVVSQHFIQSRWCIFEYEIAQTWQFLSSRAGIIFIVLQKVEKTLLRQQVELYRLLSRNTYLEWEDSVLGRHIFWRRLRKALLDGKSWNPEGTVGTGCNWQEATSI
# Chain of Cytochrome P450 3A4 (P08684 whole entry): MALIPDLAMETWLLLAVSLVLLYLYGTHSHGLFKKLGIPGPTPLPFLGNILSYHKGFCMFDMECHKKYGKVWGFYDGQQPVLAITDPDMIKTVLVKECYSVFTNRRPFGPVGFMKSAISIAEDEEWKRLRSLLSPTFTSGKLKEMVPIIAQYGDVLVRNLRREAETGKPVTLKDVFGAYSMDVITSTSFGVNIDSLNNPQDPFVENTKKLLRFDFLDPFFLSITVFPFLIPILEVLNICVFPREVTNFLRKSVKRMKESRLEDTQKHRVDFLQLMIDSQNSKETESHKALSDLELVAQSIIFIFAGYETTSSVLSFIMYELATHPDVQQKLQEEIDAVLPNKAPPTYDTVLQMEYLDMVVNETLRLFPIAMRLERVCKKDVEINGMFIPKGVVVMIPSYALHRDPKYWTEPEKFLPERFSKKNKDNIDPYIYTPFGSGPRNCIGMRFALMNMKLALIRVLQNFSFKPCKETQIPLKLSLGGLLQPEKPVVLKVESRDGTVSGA
IC50 (Toll-like receptor 9) [nM],SMILES,further results
> 10000,Cc1cc(-c2ccc(=O)n(C)c2C)cc2cn(C3CCNCC3)nc12,IC50 (Toll-like receptor 4): > 10000 nM; IC50 (Cytochrome P450 3A4): > 20000 nM
7200,Cc1cc(=O)n(C)cc1-c1cc(C)c2nn(C3CCNCC3)cc2c1,IC50 (Toll-like receptor 4): > 4200 nM
2200,Cn1cc(-c2ccc3nc(N4CCN(C5CCC5)CC4)ncc3c2)ccc1=O,
> 10000,Cc1cc(-c2ccc(=O)n(C)c2)cc2cnc(N3CCN(C(C)C)CC3)nc12,IC50 (Toll-like receptor 7): > 10000 nM
2000,Cc1cc(-c2ccc(=O)n(C)c2)cc2cn(C3CCNCC3)nc12,
200,Cc1cc(-c2cc(C)c3nn(C4CCNCC4)cc3c2)cn(C)c1=O,
,CC[N+]1=C(/C=C/C=C/C=C2/N(CCCCCC(=O)NC34CCC(COc5ncc(-c6ccnc7[nH]ncc67)cc5C)(CC3)CC4)c3ccc(S(=O)(=O)O)cc3C2(C)C)C(C)(C)c2cc(S(=O)(=O)O)ccc21,Kd (Toll-like receptor 8 [1]): 65 nM
,Cc1cc(-c2ccnc3[nH]ncc23)cnc1OCC12CCC(N)(CC1)CC2,IC50 (Toll-like receptor 8 [2]): 68 nM

# Reference: ChEMBL document CHEMBL4619804, “Target-Based Identification and Optimization of 5-Indazol-5-yl Pyridones as Toll-like Receptor 7 and 8 Antagonists Using a Biochemical TLR8 Antagonist Competition Assay” (J Med Chem, 2020)
